Experimental findings from patent US6534524B1, “Indazole compounds and pharmaceutical compositions for inhibiting protein kinases, and methods for their use” (Agouron Pharmaceuticals, Inc., priority 1999, dated 2003) are described below.

SMILES strings stand for the structures. Like-named read-outs stand apart in the source and are kept apart here.

Data set [1] in a line: Human liver microsome (HLM) assay. It is filed as in vitro ADME. To be noted: human liver microsomes, 5 μM test compound. In short, it runs like this: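 Compound metabolism in human liver microsomes measured in triplicate. Samples at 0 and 2 h centrifuged at 14000 g for 10 min and analysed by LC-MS.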
In general terms: Liver microsomes are vesicles of endoplasmic reticulum, rich in cytochrome P450 enzymes.

Data set [2] concerns retinal vasculature (VEGF dependent). In words: In vivo assay of retinal vascular development in neonatal rats. To be noted: P8 model; intravitreal; 5 mg/ml; vehicle PEG/water 50:50.
Data set [3] addresses unphosphorylated VEGF-R2Δ50 (FLVK) (Homo sapiens, UniProt P35968, DEL940-989/E990V). The data set can be described thus: VEGF-R2 coupled spectrophotometric assay, unphosphorylated VEGF-R2Δ50 (FLVK). To be noted: for Ki: FLVK Ki, Table 1.
Data set [4] can be described thus: Determination of inhibitor concentration in mouse plasma after intraperitoneal and oral dosing. It is filed as in vivo. The procedure, abridged:
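Mice dosed intraperitoneally or orally; blood taken by ocular bleed at 0.5, 1 and 4 h and by intracardiac puncture at 7 h. Plasma extracted with ethyl acetate after internal standard and NaOH addition, analysed by HPLC or LC-MS against a mouse-plasma standard curve.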

The target in another data set is human FGF-R1 (Homo sapiens, UniProt P11362, C488A/C584S/L457V). In words: FGF-R spectrophotometric assay.
Data set [5] deals with human umbilical vein endothelial cells (HUVEC). The data set can be described thus: HUVEC proliferation assay (VEGF-stimulated, MTT). It is filed as cell-based. To be noted: Homo sapiens, HUVEC.
Data set [6] deals with VEGF dependent retinal neovascularization. The data set can be described thus: In vivo assay of retinal vascular development in neonatal rat model of retinopathy of prematurity. To be noted: ROP model, intravitreal, vehicle PEG/water 70:30; for % inhibition: 1 mg/ml. As for the experimental part:
In Vivo Assay of Retinal Vascular Development in Neonatal Rat Model of Retinopathy of Prematurity A second model of VEGF dependent retinal neovascularization was employed to evaluate the activities of this series of compounds. […] This alternating cycle of hyperoxia followed by hypoxia is repeated 7 times after which the animals are removed to room air (P14). Compounds are administered via intravitreal injection upon removal to room air and the animals are sacrificed 6 days later (P20). The isolated retinas are then isolated, stained mounted and analyzed as detail above in the development model. The effectiveness was also graded as is described for the development model.

Data set [7] concerns lung cancer cells (line MV522). The data set can be described thus: Cancer cell proliferation (MV522) assay. It is filed as cell-based. As for the experimental part: Cancer Cell Proliferation (MV522) Assay
The protocol for assessing cellular proliferation in cancer cells is similar to that used for assessments in HUVEC cells. Two thousand lung cancer cells (line MV522, acquired from American Tissue Cultural Collection) were seeded in growth media (RPMI1640 medium supplemented with 2 mM glutamine and 10% FBS). Cells are allowed to attach for 1 day prior to addition of test agents and/or vehicles. Cells are treated simultaneously with the same test agents used in the HUVEC assay. Cellular proliferation is quantified by MTT dye reduction assay 72 hours after exposure to test agents. The total length of the assay is 4 days vs. 5 for HUVEC cells because MV522 cells are not exposed to starvation medium.

[8] abbreviates: IP, 25 mg/kg, vehicle PEG400:H2O pH 2.3 30:70.
The mark [9] stands for this setting: PO, 10 mg/kg, vehicle PEG400:H2O pH 2.3 30:70.
The mark [10] stands for this setting: PO, 25 mg/kg, vehicle PEG400:H2O pH 2.3 30:70.
[11] abbreviates: PO, 50 mg/kg, vehicle PEG400:H2O pH 2.3 30:70.
[12] abbreviates: female, IP, 25 mg/kg, vehicle PEG400:H2O pH 2.3 30:70, read-out: Cmin (7 hr conc.).
Where [13] appears, read: female, PO, 25 mg/kg, vehicle PEG400:H2O pH 2.3 30:70, read-out: Cmin (7 hr conc.).
[14] abbreviates: female, PO, 50 mg/kg, vehicle PEG400:H2O pH 2.3 30:70, read-out: Cmin (7 hr conc.).
Setting [15] is: + albumin, read-out: HUVEC + albumin IC50.
[16] abbreviates: IP, 25 mg/kg, vehicle PEG400:H2O pH 2.3 60:40.
The mark [17] stands for this setting: PO, 50 mg/kg, vehicle PEG400:H2O pH 2.3 60:40.
[18] abbreviates: female, IP, 25 mg/kg, vehicle PEG400:H2O pH 2.3 60:40, read-out: Cmin (7 hr conc.).
[19] abbreviates: female, PO, 50 mg/kg, vehicle PEG400:H2O pH 2.3 60:40, read-out: Cmin (7 hr conc.).
Setting [20] is: female, IP, 25 mg/kg, vehicle PEG400:H2O pH 2.3 30:70.
[21] abbreviates: female, PO, 50 mg/kg, vehicle PEG400:H2O pH 2.3 30:70.

Chain of unphosphorylated VEGF-R2Δ50 (FLVK) (P35968 with tags, fused parts or gaps DEL940-989/E990V limits assumed): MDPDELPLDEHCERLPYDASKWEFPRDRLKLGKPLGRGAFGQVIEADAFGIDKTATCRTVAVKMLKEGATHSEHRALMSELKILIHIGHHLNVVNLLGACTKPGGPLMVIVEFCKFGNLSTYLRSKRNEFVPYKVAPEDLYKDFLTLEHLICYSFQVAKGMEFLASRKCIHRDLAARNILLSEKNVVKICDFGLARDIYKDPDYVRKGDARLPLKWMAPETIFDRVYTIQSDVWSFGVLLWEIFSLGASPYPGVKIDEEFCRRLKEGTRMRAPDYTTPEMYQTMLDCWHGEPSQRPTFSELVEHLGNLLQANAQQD
Chain of human FGF-R1 (P11362 456-766 L457V/C488A/C584S): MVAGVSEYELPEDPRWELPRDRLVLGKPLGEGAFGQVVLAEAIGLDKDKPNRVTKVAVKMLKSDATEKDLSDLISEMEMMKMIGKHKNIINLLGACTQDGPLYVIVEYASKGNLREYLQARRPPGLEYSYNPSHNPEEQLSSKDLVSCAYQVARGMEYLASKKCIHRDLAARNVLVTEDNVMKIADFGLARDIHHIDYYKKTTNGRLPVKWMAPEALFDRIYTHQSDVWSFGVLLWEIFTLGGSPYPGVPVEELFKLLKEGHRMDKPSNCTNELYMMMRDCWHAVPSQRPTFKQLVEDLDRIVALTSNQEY

As to `CS(=O)(=O)c1ccc(C(=O)Nc2cccc(Oc3ccc4c(/C=C/c5ccccn5)n[nH]c4c3)c2)s1` [Example 31(c), 6-[3-((5-Methylsulfonylthien-2-yl)carboxanido)phenoxy]-3-E-[2-(pyridin-2-yl)ethenyl]-1H-indazole], in data set [1], the “% remain (HLM, 2 h)” value is 87%. The “Initial Evaluation” value in data set [2] is “+/++ var”. The inhibitory constant (Ki) in data set [3] was under 0.1 nM.
As to `CCn1nc(C)cc1C(=O)Nc1cccc(Oc2ccc3c(/C=C/c4ccccn4)n[nH]c3c2)c1` [Example 31(d), 6-[3-((1-Ethyl-3-methyl-1H-pyrazol-5-yl)carboxamido)phenoxy]-3-E-[2-(pyridin-2-yl)ethenyl]-1H-indazole], the “% remain (HLM, 2 h)” value in data set [1] stood at 110%. Also, the AUClast in data set [4] (setting [8]) is 237784 ng·h/mL; in data set [4] (setting [9]) it was 49120 ng·h/mL; in data set [4] (setting [10]) it was 203860 ng·h/mL; in data set [4] (setting [11]), 430683 ng·h/mL. The Cmax in data set [4] (setting [8]) turned out to be 64184 ng/mL; in data set [4] (setting [9]) it was 9740 ng/mL; in data set [4] (setting [10]), 50810 ng/mL; in data set [4] (setting [11]) it was 76915 ng/mL. Also, the “plasma half-life (T1/2)” value came to 5.3 h in data set [4] (setting [8]), 3.1 h in data set [4] (setting [9]), 1.9 h in data set [4] (setting [10]) and 39.3 h in data set [4] (setting [11]). Also, the concentration at 7 h in data set [4] (setting [12]) was determined as 15100 ng/mL; in data set [4] (setting [13]) it was 3800 ng/mL; in data set [4] (setting [14]) it was 42500 ng/mL. For the same compound, the concentration at 7 hr in data set [4] (female, PO, 10 mg/kg, vehicle PEG400:H2O pH 2.3 30:70, read-out: Cmin (7 hr conc.)) was 2020 ng/mL. On human FGF-R1, the affinity corresponds to a Ki of 14 nM. In data set [2], the “% inhibition” value was 12%.
In the case of `CCONC(=O)c1ccccc1Sc1ccc2c(/C=C/c3ccccn3)n[nH]c2c1` [Example 35(dd), 6-[2-(Ethoxycarbamoyl)phenylsulfanyl]-3-E-[2-(pyridin-2-yl)ethenyl]-1H-indazole], the “% remain (HLM, 2 h)” value in data set [1] is 26%. For the same compound, the Ki at human FGF-R1 was found to be 75 nM; in data set [3], 0.6 nM. In addition, the “Initial Evaluation” value in data set [2] is “++/+++ var”.
On to `C=CCONC(=O)c1ccccc1Sc1ccc2c(/C=C/c3ccccn3)n[nH]c2c1` [Example 35(j), 6-[2-(Allyloxycarbamoyl)phenylsulfanyl]-3-E-[2-(pyridin-2-yl)ethenyl]-1H-indazole], for which, in data set [5] (setting [15]), the IC50 worked out at 1.5 nM. The “% remain (HLM, 2 h)” value in data set [1] was found to be 5%. The AUClast in data set [4] (setting [8]) came out at 9531 ng·h/mL; in data set [4] (setting [11]), 1328 ng·h/mL. Further, the figures for the “plasma half-life (T1/2)” value in data set [4] (setting [8]) and in data set [4] (setting [11]) were 1.3 h and 4.5 h, respectively. Moreover, the concentration at 7 h came out at 52 ng/mL in data set [4] (setting [12]) and 5 ng/mL in data set [4] (setting [14]). Besides, the “% inhibition” value in data set [2] came to 7%. The inhibition at 0.05 µM in data set [3] (read-out: FLVK % inhibition) is 99%.
As for `C/C=C/C(=O)Nc1cccc(C(=O)c2ccc3c(/C=C/c4ccccn4)n[nH]c3c2)c1` [Example 41(c), 6-(3-Crotonylamidobenzoyl)-3-E-[2-(pyridin-2-yl)ethenyl]-1H-indazole], the “% remain (HLM, 2 h)” value in data set [1] is on record as 68%. Moreover, the AUClast in data set [4] (setting [16]) stood at 3397 ng·h/mL; in data set [4] (setting [17]), 3182 ng·h/mL. In addition, the “plasma half-life (T1/2)” value in data set [4] (setting [16]) turned out to be 1.7 h; in data set [4] (setting [17]), 2.6 h. Besides, the concentration at 7 h in data set [4] (setting [18]) worked out at 57 ng/mL; in data set [4] (setting [19]), 104 ng/mL. Moreover, in data set [6], the “% inhibition” value is 16%. In addition, the entries for the “Initial Evaluation” value in data set [6] (10 mg/ml) and in data set [2] were “+++ (three pluses give to retinas with near total regression (approximately 75% or greater))” and “++ (two pluses being judged to be approximately 25-75% regression)”, respectively. The compound also came in with an inhibition constant Ki in data set [3] of 0.22 nM.
As to `O=C(c1cccc(NC(=O)c2cccc3[nH]ccc23)c1)c1ccc2c(/C=C/c3ccccn3)n[nH]c2c1` [Example 41(d), 6-[3-(Indol-4-ylcarboxamido)benzoyl]-3-E-[2-(pyridin-2-yl)ethenyl]-1H-indazole], the AUClast in data set [4] (setting [16]) was 10324 ng·h/mL; in data set [4] (setting [17]), 7072 ng·h/mL. Further, the “plasma half-life (T1/2)” value in data set [4] (setting [16]) is 2.8 h; in data set [4] (setting [17]), 1.5 h. Further, the figures for the concentration at 7 h in data set [4] (setting [18]) and in data set [4] (setting [19]) were 573 ng/mL and 150 ng/mL, respectively. Besides, in data set [6], the “% inhibition” value was 0%. The compound also displayed a Ki in data set [3] of 0.093 nM.
Regarding `CCn1nc(C)cc1C(=O)Nc1cc(C(=O)c2ccc3c(/C=C/c4ccccn4)n[nH]c3c2)ccc1C` [Example 41(ee), 6-[3-((1-Ethyl-3-methyl-1H-pyrazol-5-yl)carboxanido)-4-methylbenzoyl]-3-E-[2-(pyridin-2-yl)ethenyl]-1H-indazole], the “% remain (HLM, 2 h)” value in data set [1] is listed as 47%. Also, the entries for the “plasma half-life (T1/2)” value in data set [4] (setting [8]) and in data set [4] (setting [11]) were 4.0 h and 3.4 h, respectively. The exposure AUC(0-t) is over 28400 ng·h/mL in data set [4] (setting [20]) and over 25300 ng·h/mL in data set [4] (setting [21]). The concentration at 7 h was determined as 1670 ng/mL in data set [4] (setting [12]) and 1210 ng/mL in data set [4] (setting [14]). Further, the “Initial Evaluation” value in data set [2] was “+/++ var”. Besides, in data set [3], affinity was put at a Ki of 0.13 nM.
On to `Cc1cc(C(=O)Nc2cc(C(=O)c3ccc4c(/C=C/c5ccccn5)n[nH]c4c3)c(C)cc2C)n(C)n1` [Example 41(mm), 6-[2,4-Dimethyl-5-((1,3-dimethyl-1H-pyrazol-5-yl)carboxamido)benzoyl]-3-E-[2-(pyridin-2-yl)ethenyl]-1H-indazole], for which the “% remain (HLM, 2 h)” value in data set [1] is on record as 94%. Besides, in data set [4] (setting [10]), the AUClast amounted to 2261 ng·h/mL, the peak concentration (Cmax) amounted to 852 ng/mL and the “plasma half-life (T1/2)” value is 2.5 h. Also, the concentration at 7 h in data set [4] (setting [13]) was determined as 127 ng/mL. The “Initial Evaluation” value in data set [2] is given as “+ (one plus being detectable regression judged to be approximately 25 percent or less)”.
`CCCn1nc(C)cc1C(=O)Nc1cccc(C(=O)c2ccc3c(/C=C/c4ccccn4)n[nH]c3c2)c1` [Example 41(r), 6-[3-((1-n-Propyl-3-methyl-1H-pyrazol-5-yl)carboxamido)benzoyl]-3-E-[2-(pyridin-2-yl)ethenyl]-1H-indazole]: the “% remain (HLM, 2 h)” value in data set [1] is on record as 83%. Also, the area under the curve AUC(0-t) was over 23800 ng·h/mL in data set [4] (setting [20]) and over 17800 ng·h/mL in data set [4] (setting [21]). The Cmax in data set [4] (female, IP, 25 mg/kg, vehicle PEG400:H2O pH 2.3 30:70, read-out: Cmax) is over 5000 ng/mL; in data set [4] (female, PO, 50 mg/kg, vehicle PEG400:H2O pH 2.3 30:70, read-out: Cmax), over 5000 ng/mL. The concentration at 7 h in data set [4] (setting [12]) and in data set [4] (setting [14]) was over 5000 ng/mL in each case. Besides, the “Initial Evaluation” value in data set [2] is reported as “+/++ var”.
For `O=C(c1cccc(NC(=O)c2cccc3[nH]ccc23)c1)c1ccc2c(/C=N/n3cccc3)n[nH]c2c1` [Example 45(a), 6-[3-(Indol-4-ylcarboxamido)benzoyl]-3-E-[N-(pyrrol-1-yl)iminomethyl]-1H-indazole], the IC50 was about 15 nM in data set [5] (setting [15]), 3.1 nM in data set [5] (read-out: HUVEC IC50) and 3500 nM in data set [7].

A word on the Ki: it is the dissociation constant of the complex between target and ligand, obtained from inhibition or displacement. Higher therefore signals weaker binding. Usually Cmax stands for the highest concentration seen after dosing. Broadly, the % inhibition is the change of the read-out against control, counted positive when it falls. Higher therefore signals strong suppression. One may read the IC50 as the concentration at which inhibition is half-maximal. As usually defined, the inhibition is the share of the control response that was lost under treatment. As usually defined, the AUC(0-t) is exposure summed from dosing to a finite time, without extrapolation to infinity.
